According to patent US12130283B2, “Methods, systems and compositions for functional in vitro cellular models of mammalian systems” (University of Central Florida Research Foundation, Inc., priority 2012, dated 2024):

Legend:
[1] = test system: patterned neonatal cardiomyocytes; assay: Field potential recordings from patterned neonatal cardiomyocytes on microelectrode arrays; assay type: cell-based, rat
From the text: However, commercial MEAs have electrodes spaced too close to allow effective measurement of conduction velocity, so the long linear surface chemistry patterns developed in [Natarajan 2011] allowed for measurement of conduction velocity in the spontaneously beating patterned cardiomyocytes effectively.
The μCCA in FIG. 4 required the use of liver cells and cardiac myocytes. In FIG. 4GB, pump is 43, other tissues compartment is 44, and bubble is 45. The neonatal cardiac myocyte cultures are obtained from two-day-old rat pups by previously published methods [Dhir 2009; Natajaran 2011]. Cardiac myocytes were plated at a density of […] on the patterned MEAs. Approximately 10 days were required for the cultures to establish themselves. Cardiac myocytes were stable on the patterns for at least 30 days. A silicon rubber gasket was used to isolate the tissue chambers on the μCCA prior to assembly to allow optimization of culture conditions in each chamber. After 10 days, cells were introduced to the liver compartment. […]
The cardiac myocytes were cultured on patterned metal MEAs (Planar 10 μm electrodes, 200 μm separation. Multichannel-systems). […] After a 30 minute incubation period, APs were detected and recorded using built in functions of the Multichannel System software. […] The data was further analyzed using software written using Matlab and Clampfit (Axon instruments).

colon cancer = settings: cited from earlier work
[2] = in vivo; cited from earlier work
cultured cardiomyocytes = assay: Spontaneous firing rate of cultured cardiomyocytes on patterned MEA (FIG. 14F); assay type: cell-based, human
From the text: The disclosed systems are based on human cardiac myocytes. As described herein, the incorporation of a functional cardiac system based on patterned cardiac cells integrated with microelectrode assays enabled the measurement of several cardiac parameters including conduction velocity, peak amplitude and spontaneous frequency, QT interval, and relative refractory period (which is related to triangulation). […] As shown in FIGS. 14A-F, cardiac function can be mimicked or simulated using a component comprising a microcantilever detection system (14A) or a patterned MEA (microelectrode array), FIG. 14D. […] Spontaneous or electrical stimulation-evoked force generation of cardiac myocytes was measured based on optical or electrical detection of cantilever-bending. […] The sensor detected the displacement of the laser beam caused by changes in the position of the cantilever. […] Peak contraction force and force-contraction velocity relationships were calculated based on the geometry of the cantilevers and the thickness of cultured cardiac myocytes (determined from immunostaining data). Compounds (such as norepinephrine, verapamil, and sotalol) were applied using traditional methods to the medium and possible changes in force or force-velocity relationship were detected and analyzed using standard statistical methods. […]

CCCCCCCO [1-Heptanol]
conduction velocity (CV) after Heptanol exposure ([1]; between electrodes 84 and 52, CV before addition of the drug 0.22 m/sec): 0.011 m/sec

O=c1[nH]c(=O)n(C2CCCO2)cc1F (stereo not drawn) [Tegafur]
optimal uracil to Tegafur ratio (colon cancer; maximizing the concentration of 5-FU in the tumor relative to that in the blood): 4 to 1

CC1(C)C(C=C(Cl)Cl)C1C(=O)OCc1cccc(Oc2ccccc2)c1 (stereo not drawn) [cis-permethrin]
toxicity of cis isomers relative to trans isomers [2]: about ten times more toxic

NC[C@H](O)c1ccc(O)c(O)c1 [norepinephrine]
effect on spontaneous firing rates (cultured cardiomyocytes): elicits alteration of spontaneous firing rates

C[C@@H]1CN(c2c(F)c(N)c3c(=O)c(C(=O)O)cn(C4CC4)c3c2F)C[C@H](C)N1 [sparfloxacin]
responsiveness of the patterned cardiac system [1]: responsive

O=c1cc[nH]c(=O)[nH]1 [uracil]
effect on the toxicity of Tegafur (colon cancer): enhances the toxicity of Tegafur
